Experimental data: US9249129B2, “Morpholino substituted urea derivatives as mTOR inhibitors” (CELLZOME LIMITED, priority 2010, dated 2016)

Assays:
Assay in all cases: kinobeads assay with mass spectrometry detection of kinases (kinase selectivity profile)
Type in all cases: binding
kinases (kinome) [1] = target: T1, kinases (kinome) (Homo sapiens, UniProt P51617); conditions: IRAK1 (TKL), IPI00293652
T1 construct: determined in kinobeads assays with mass spectrometry detection of kinases as described previously; endogenous in cells; host or cells: cell lysate
Description: (§1) The protein kinase complement of the human genome (the kinome) was described previously (Manning et al., 2002. Science 298(5600):1912-1934). Sequence accession numbers are defined by the International Protein Index (IPI) (Kersey et al., 2004. Proteomics 4(7):1985-1988).

kinases (kinome) [2] = target: T2, kinases (kinome) (Homo sapiens, UniProt P36507); conditions: MAP2K2 (STE), IPI00003783
T2 construct: determined in kinobeads assays with mass spectrometry detection of kinases as described previously; endogenous in cells; host or cells: cell lysate
Description: as §1

kinases (kinome) [3] = target: T3, kinases (kinome) (Homo sapiens, UniProt Q8NEB9); conditions: PIK3C3 (Lipid Kinase), IPI00873758
T3 construct: determined in kinobeads assays with mass spectrometry detection of kinases as described previously; endogenous in cells; host or cells: cell lysate
Description: as §1

kinases (kinome) [4] = target: T4, kinases (kinome) (Homo sapiens, UniProt O75716); conditions: MPSK1 (Other), IPI00915837
T4 construct: determined in kinobeads assays with mass spectrometry detection of kinases as described previously; endogenous in cells; host or cells: cell lysate
Description: as §1

kinases (kinome) [5] = target: T5, kinases (kinome) (Homo sapiens, UniProt Q16566); conditions: CaMK4 (CAMK), IPI00430411
T5 construct: determined in kinobeads assays with mass spectrometry detection of kinases as described previously; endogenous in cells; host or cells: cell lysate
T5 sequence (Q16566 1-473): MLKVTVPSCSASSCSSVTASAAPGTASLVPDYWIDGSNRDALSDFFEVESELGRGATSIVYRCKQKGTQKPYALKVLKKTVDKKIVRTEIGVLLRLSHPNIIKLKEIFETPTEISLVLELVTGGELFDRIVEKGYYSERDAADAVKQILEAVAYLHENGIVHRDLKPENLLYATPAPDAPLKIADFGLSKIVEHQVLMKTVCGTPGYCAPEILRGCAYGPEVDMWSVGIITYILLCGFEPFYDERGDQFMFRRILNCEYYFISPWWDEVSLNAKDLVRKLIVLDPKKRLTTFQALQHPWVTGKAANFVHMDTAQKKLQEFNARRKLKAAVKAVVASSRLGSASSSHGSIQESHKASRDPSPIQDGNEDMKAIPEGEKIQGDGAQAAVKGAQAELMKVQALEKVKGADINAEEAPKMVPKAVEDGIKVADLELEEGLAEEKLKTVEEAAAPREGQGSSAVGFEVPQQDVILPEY
Description: as §1

kinases (kinome) [6] = target: T6, kinases (kinome) (Homo sapiens, UniProt Q99683); conditions: MAP3K5 (STE), IPI00412433
T6 construct: determined in kinobeads assays with mass spectrometry detection of kinases as described previously; endogenous in cells; host or cells: cell lysate
T6 sequence (Q99683 1-1374): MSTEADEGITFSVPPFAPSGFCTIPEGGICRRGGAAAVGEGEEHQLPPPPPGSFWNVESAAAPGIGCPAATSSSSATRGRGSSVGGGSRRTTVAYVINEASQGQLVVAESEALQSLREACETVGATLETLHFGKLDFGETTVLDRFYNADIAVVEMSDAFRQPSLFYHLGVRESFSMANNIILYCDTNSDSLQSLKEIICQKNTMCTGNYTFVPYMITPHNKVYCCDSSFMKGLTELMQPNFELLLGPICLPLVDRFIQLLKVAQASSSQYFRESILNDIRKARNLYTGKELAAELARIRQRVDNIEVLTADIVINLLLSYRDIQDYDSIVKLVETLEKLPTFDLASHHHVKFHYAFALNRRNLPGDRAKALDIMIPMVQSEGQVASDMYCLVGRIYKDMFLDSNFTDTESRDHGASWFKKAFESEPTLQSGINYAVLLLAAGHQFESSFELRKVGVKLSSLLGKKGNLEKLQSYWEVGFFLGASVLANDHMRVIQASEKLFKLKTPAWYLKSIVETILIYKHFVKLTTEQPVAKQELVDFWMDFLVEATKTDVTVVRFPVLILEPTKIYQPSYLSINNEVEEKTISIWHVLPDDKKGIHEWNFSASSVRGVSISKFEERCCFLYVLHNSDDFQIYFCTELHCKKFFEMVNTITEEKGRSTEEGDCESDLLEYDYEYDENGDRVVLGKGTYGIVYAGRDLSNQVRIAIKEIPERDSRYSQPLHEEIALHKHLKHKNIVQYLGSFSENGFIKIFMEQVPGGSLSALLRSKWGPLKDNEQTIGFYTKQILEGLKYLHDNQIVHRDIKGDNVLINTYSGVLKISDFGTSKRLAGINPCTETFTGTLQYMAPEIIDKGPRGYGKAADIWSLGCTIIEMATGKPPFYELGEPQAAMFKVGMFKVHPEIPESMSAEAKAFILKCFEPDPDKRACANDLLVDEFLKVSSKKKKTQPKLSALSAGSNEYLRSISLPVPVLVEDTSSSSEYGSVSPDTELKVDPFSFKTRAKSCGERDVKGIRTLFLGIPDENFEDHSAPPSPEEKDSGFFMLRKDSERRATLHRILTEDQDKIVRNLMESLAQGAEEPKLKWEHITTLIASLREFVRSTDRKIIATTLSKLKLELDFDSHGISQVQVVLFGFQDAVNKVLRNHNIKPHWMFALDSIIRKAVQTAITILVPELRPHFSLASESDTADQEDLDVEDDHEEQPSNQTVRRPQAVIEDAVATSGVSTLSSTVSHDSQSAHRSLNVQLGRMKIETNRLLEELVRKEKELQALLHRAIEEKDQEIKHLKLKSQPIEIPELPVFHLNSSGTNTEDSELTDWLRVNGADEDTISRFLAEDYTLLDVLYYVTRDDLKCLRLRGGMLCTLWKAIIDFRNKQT
Description: as §1

kinases (kinome) [7] = target: T7, kinases (kinome) (Homo sapiens, UniProt P36894); conditions: BMPR1A (TKL), IPI00005731
T7 construct: determined in kinobeads assays with mass spectrometry detection of kinases as described previously; endogenous in cells; host or cells: cell lysate
Description: as §1

kinases (kinome) [8] = target: T8, kinases (kinome) (Homo sapiens, UniProt Q8TBX8); conditions: PIP5K2C (Lipid Kinase), IPI00152303
T8 construct: determined in kinobeads assays with mass spectrometry detection of kinases as described previously; endogenous in cells; host or cells: cell lysate
T8 sequence (Q8TBX8 1-421): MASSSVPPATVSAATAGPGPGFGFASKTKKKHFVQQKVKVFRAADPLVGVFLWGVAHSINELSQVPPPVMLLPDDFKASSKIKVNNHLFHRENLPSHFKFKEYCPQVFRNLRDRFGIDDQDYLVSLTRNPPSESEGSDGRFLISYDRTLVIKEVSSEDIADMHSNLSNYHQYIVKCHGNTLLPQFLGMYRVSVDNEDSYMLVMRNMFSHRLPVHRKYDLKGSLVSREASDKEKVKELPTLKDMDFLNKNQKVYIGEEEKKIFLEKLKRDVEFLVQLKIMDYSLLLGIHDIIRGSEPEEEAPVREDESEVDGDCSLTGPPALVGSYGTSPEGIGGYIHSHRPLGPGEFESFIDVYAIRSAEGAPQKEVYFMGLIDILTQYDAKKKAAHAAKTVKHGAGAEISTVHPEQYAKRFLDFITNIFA
Description: as §1

Measured: IC50

T1 sequence (P51617 whole entry): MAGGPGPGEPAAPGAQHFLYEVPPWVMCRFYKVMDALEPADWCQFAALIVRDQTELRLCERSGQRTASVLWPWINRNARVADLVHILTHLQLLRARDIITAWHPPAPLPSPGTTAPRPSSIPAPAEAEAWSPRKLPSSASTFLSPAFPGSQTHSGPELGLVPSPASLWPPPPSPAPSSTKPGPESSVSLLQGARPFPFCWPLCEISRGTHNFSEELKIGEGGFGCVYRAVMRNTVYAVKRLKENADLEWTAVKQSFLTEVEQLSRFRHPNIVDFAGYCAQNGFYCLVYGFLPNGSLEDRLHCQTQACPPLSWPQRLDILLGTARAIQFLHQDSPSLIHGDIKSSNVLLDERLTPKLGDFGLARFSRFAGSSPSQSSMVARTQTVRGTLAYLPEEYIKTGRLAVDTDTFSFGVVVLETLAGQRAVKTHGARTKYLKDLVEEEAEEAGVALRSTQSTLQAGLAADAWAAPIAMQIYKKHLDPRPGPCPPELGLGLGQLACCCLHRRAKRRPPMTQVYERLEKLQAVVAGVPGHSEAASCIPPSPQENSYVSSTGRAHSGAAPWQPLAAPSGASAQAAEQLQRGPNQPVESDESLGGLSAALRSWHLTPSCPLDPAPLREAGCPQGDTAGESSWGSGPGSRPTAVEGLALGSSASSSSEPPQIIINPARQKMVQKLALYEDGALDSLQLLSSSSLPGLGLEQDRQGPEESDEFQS
T4 sequence (O75716 whole entry): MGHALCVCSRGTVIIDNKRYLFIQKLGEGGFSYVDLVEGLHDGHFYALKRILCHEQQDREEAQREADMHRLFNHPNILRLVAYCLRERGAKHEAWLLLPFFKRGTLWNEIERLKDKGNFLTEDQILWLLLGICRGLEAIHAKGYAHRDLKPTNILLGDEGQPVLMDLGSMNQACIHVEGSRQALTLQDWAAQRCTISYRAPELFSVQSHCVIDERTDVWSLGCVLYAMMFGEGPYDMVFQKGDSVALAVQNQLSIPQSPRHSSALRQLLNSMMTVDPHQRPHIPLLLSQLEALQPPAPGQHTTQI
T3 sequence (Q8NEB9 whole entry): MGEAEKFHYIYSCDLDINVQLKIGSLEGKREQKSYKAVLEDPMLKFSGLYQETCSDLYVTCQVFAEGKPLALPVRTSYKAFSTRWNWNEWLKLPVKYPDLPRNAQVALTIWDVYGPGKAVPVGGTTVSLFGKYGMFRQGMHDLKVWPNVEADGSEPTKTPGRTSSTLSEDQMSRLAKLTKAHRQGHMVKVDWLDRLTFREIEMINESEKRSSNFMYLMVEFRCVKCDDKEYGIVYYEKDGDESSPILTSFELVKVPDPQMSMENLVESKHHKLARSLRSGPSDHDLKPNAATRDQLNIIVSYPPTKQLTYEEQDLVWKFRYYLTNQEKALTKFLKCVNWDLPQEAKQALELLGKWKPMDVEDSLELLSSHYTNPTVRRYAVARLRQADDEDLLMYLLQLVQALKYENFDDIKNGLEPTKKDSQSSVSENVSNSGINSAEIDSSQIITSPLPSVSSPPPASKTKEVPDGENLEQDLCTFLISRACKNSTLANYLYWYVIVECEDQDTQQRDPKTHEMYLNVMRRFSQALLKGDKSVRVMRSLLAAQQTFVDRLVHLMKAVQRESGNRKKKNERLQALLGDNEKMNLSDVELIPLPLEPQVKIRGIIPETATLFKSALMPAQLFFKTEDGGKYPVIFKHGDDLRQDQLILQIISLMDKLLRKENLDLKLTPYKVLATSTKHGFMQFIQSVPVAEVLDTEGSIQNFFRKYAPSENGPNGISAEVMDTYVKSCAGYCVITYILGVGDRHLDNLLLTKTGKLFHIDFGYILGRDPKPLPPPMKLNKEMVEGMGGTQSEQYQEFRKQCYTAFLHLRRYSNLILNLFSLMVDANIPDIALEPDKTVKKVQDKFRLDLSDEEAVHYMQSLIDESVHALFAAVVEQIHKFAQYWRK
T2 sequence (P36507 whole entry): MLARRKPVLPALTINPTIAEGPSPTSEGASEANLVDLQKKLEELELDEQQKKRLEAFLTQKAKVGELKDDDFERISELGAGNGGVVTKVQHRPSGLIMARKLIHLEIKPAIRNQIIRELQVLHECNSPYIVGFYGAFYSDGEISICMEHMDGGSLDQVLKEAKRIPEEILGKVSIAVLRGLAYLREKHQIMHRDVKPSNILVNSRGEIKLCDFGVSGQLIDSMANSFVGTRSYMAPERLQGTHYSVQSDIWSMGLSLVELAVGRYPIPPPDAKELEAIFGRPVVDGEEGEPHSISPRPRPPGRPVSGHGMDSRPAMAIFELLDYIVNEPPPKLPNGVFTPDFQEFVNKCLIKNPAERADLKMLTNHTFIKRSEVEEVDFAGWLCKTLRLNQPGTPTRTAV
T7 sequence (P36894 24-532): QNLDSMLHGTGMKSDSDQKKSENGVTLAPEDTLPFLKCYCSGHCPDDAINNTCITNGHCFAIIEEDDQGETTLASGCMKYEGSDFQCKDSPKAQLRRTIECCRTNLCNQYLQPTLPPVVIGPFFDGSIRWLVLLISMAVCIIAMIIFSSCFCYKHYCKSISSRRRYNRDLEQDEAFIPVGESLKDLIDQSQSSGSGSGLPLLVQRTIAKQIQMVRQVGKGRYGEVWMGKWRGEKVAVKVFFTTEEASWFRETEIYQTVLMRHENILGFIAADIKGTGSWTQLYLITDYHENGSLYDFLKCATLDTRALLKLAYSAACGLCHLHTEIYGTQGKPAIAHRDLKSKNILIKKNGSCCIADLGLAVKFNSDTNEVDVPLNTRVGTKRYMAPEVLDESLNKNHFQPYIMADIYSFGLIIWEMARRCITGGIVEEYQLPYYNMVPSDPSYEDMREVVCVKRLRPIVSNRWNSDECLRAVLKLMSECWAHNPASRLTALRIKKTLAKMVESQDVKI

C[C@H]1COCCN1c1nc(-c2ccc(NC(=O)NC3CC3)cc2)cc(-c2ccccc2S(C)(=O)=O)n1 [Example 4, (S)-1-cyclopropyl-3-(4-(2-(3-methylmorpholino)-6-(2-(methylsulfonyl)phenyl)pyrimidin-4-yl)phenyl)urea]
not listed: kinases (kinome) [7] | kinases (kinome) [8]
> 10 µM: all other assays above

C[C@H]1COCCN1c1cc(-c2ccccc2S(C)(=O)=O)nc(-c2ccc(NC(=O)NC3CC3)cc2)n1 [Example 6, (S)-1-cyclopropyl-3-(4-(4-(3-methylmorpholino)-6-(2-(methylsulfonyl)phenyl)pyrimidin-2-yl)phenyl)urea]
> 10 µM: kinases (kinome) [4] | kinases (kinome) [5] | kinases (kinome) [7]

CCNC(=O)Nc1ccc(-c2cc(-c3ccccc3C#N)nc(N3CCOC[C@@H]3C)n2)cc1 [Example 8, (S)-1-(4-(6-(2-cyanophenyl)-2-(3-methylmorpholino)pyrimidin-4-yl)phenyl)-3-ethylurea]
> 10 µM: kinases (kinome) [5] | kinases (kinome) [7]

C[C@H]1COCCN1c1nc(-c2ccc(NC(=O)NC3CC3)cc2)cc(-c2cc(F)ccc2S(C)(=O)=O)n1 [Example 40, (S)-1-cyclopropyl-3-(4-(6-(5-fluoro-2-(methylsulfonyl)phenyl)-2-(3-methylmorpholino)pyrimidin-4-yl)phenyl)urea]
not listed: kinases (kinome) [4]
> 10 µM: all other assays above

C[C@H]1COCCN1c1cc(-c2ccccn2)nc(-c2ccc(NC(=O)NCCO)cc2)n1 [Example 43, (S)-1-(2-hydroxyethyl)-3-(4-(4-(3-methylmorpholino)-6-(pyridin-2-yl)pyrimidin-2-yl)phenyl)urea]
> 10 µM: kinases (kinome) [1] | kinases (kinome) [2] | kinases (kinome) [3] | kinases (kinome) [8] | kinases (kinome) [5]

C[C@H]1COCCN1c1nc(-c2ccc(NC(=O)NC3CC3)cc2)cc(-c2cccnc2S(C)(=O)=O)n1 [Example 46, (S)-1-cyclopropyl-3-(4-(2-(3-methylmorpholino)-6-(2-(methylsulfonyl)pyridin-3-yl)pyrimidin-4-yl)phenyl)urea]
> 10 µM: kinases (kinome) [1] | kinases (kinome) [2] | kinases (kinome) [3] | kinases (kinome) [8] | kinases (kinome) [7]

C[C@H]1COCCN1c1nc(-c2ccc(NC(=O)N[C@H]3CCC[C@@H]3O)cc2)cc(-c2cc(F)ccc2S(C)(=O)=O)n1 [Example 76, 1-(4-(6-(5-fluoro-2-(methylsulfonyl)phenyl)-2-((S)-3-methylmorpholino)pyrimidin-4-yl)phenyl)-3-((1S,2S)-2-hydroxycyclopentyl)urea]
not listed: kinases (kinome) [5]
> 10 µM: all other assays above
